Laboratory results taken from US12077503B2, “Substituted cyclic amides and their use as herbicides” (FMC CORPORATION, priority 2015, dated 2024).

How the values were obtained:
Format in all cases: in vivo
rice (Oryra sativa) = assay: Test B flooded paddy test; settings: Flood, 250 g ai/ha; 0 to 100 scale where 0 is no effect and 100 is complete control; 13 to 15 d
In short: (§1)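 Visual ratings (0 none to 100 complete control) are relative to untreated plants, taken 13–15 d after treatment in a greenhouse. Test material went straight into floodwater standing 3 cm above the soil, kept constant, on plants at the 2-leaf stage.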

[1] = tested on: sedge, umbrella (small-flower umbrella sedge, Cyperus difformis); assay: Test B flooded paddy test; settings: Flood, 250 g ai/ha; 0 to 100 scale where 0 is no effect and 100 is complete control; 13 to 15 d
In short: as §1

[2] = tested on: barnyardgrass (Echinochloa crus-galli); assay: Test B flooded paddy test; settings: Flood, 250 g ai/ha; 0 to 100 scale where 0 is no effect and 100 is complete control; 13 to 15 d
In short: as §1

[3] = tested on: ducksalad (Heteranthera limosa); assay: Test B flooded paddy test; settings: Flood, 250 g ai/ha; 0 to 100 scale where 0 is no effect and 100 is complete control; 13 to 15 d
In short: as §1

[4] = tested on: blackgrass (Alopecurus myosuroides); assay: Test C preemergence; settings: for Plant response rating (scale of 0 to 100), Blackgrass: 31 g ai/ha, 0 is no effect, 100 is complete control; for Plant response rating, Blackgrass: scale 0 to 100, 0 no effect, 100 complete control
In short: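 Greenhouse test: seeds in a loam and sand blend treated preemergence, or seedlings at the 1- to 4-leaf stage (2 to 18 cm) in a peat, vermiculite and limestone mix treated postemergence, with test chemicals in a surfactant-containing non-phytotoxic solvent. Scored by eye at 13 to 15 d relative to controls, 0 (no effect) to 100 (complete control).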

[5] = tested on: giant foxtail (Setaria faberii); assay: Test A postemergence
In short: (§2)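 Each rating is a visual injury score from 0 to 100 given about 10 d after treatment, judged against untreated controls kept alongside in the greenhouse. In loam soil–sand blend, seeds got a preemergence directed soil spray, while postemergence plants were 2 to 10 cm tall at spraying.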

[6] = tested on: ryegrass, Italian (Italian ryegrass, Lolium multiflorum); assay: Test A postemergence
In short: as §2

corn (Zea mays) = assay: Test A postemergence
In short: as §2

[7] = tested on: ragweed (common ragweed, Ambrosia elatior); assay: Test A postemergence
In short: as §2

[8] = tested on: Galium (catchweed bedstraw, Galium aparine); assay: Test A postemergence
In short: as §2

[9] = tested on: barnyardgrass (Echinochloa crus-galli); assay: Test A postemergence
In short: as §2

[10] = tested on: blackgrass (Alopecurus myosuroides); assay: Test A postemergence
In short: as §2

[11] = tested on: pigweed (Amaranthus retroflexus); assay: Test A postemergence
In short: as §2

[12] = tested on: wheat (Triticum aestivum); assay: Test A postemergence
In short: as §2

Kochia (Kochia scoparia) [13] = assay: Test A postemergence
In short: as §2

[14] = tested on: giant foxtail (Setaria faberii); assay: Test A preemergence
In short: as §2

[15] = tested on: ryegrass, Italian (Italian ryegrass, Lolium multiflorum); assay: Test A preemergence
In short: as §2

[16] = tested on: ragweed (common ragweed, Ambrosia elatior); assay: Test A preemergence
In short: as §2

[17] = tested on: barnyardgrass (Echinochloa crus-galli); assay: Test A preemergence
In short: as §2

[18] = tested on: pigweed (Amaranthus retroflexus); assay: Test A preemergence
Kochia (Kochia scoparia) [19] = assay: Test A preemergence
In short: as §2

[20] = 125 g ai/ha, postemergence, visual rating after approx. 10 d, 0 to 100 scale (0 no effect, 100 complete control)
[21] = 500 g ai/ha, postemergence, visual injury, 0 to 100 scale (0 no effect, 100 complete control), approx. 10 d
[22] = Postemergence, 500 g ai/ha, 0 to 100 scale where 0 is no effect and 100 is complete control
[23] = 125 g ai/ha, Preemergence, visual injury after approximately 10 d, 0 to 100 scale where 0 is no effect and 100 is complete control
[24] = 500 g ai/ha, preemergence, 0 to 100 scale, 0 = no effect, 100 = complete control
[25] = 125 g ai/ha, postemergence, visual injury rating on 0 to 100 scale (0 no effect, 100 complete control), approx. 10 d
[26] = Preemergence, 500 g ai/ha, visual injury approx. 10 d

## CN1CC(c2cccc(C(F)(F)F)c2)C(C(=O)Nc2cccc(F)c2F)C1=O (stereo not drawn) [Compound 636]
Rice (Oryra sativa)
  Plant response rating, Rice: 0
[1]
  Plant response rating, Sedge, Umbrella: 0
[2]
  Plant response rating, Barnyardgrass: 70
[3]
  Plant response rating, Ducksalad: 100
[4]
  Plant response rating (scale of 0 to 100), Blackgrass: 90
[4]; 62 g ai/ha
  Plant response rating, Blackgrass: 85
[4]; 125 g ai/ha
  Plant response rating, Blackgrass: 90
[4]; 250 g ai/ha
  Plant response rating, Blackgrass: 90
[5]; [20]
  Plant response rating, Foxtail, Giant: 90
[5]; [21]
  Plant response rating, Foxtail, Giant: 90
[6]; [20]
  Plant response rating, Ryegrass, Italian: 50
[6]; [21]
  Plant response rating, Ryegrass, Italian: 70
Corn (Zea mays); [20]
  Plant response rating, Corn: 70
Corn (Zea mays); [22]
  Plant response rating, Corn: 80
[7]; [20]
  Plant response rating, Ragweed: 0
[7]; [21]
  Plant response rating, Ragweed: 30
[8]; [20]
  Plant response rating, Galium: 50
[8]; [21]
  Plant response rating, Galium: 50
[9]; [20]
  Plant response rating, Barnyardgrass: 90
[9]; [22]
  Plant response rating, Barnyardgrass: 90
[10]; [20]
  Plant response rating, Blackgrass: 60
[10]; [22]
  Plant response rating, Blackgrass: 60
[11]; [20]
  Plant response rating, Pigweed: 30
[11]; [21]
  Plant response rating, Pigweed: 50
[12]; [20]
  Plant response rating, Wheat: 60
[12]; [21]
  Plant response rating, Wheat: 60
Kochia (Kochia scoparia) [13]; [20]
  Plant response rating, Kochia: 50
Kochia (Kochia scoparia) [13]; [21]
  Plant response rating, Kochia: 60
[14]; [23]
  Plant response rating, Foxtail, Giant: 90
[14]; [24]
  Plant response rating, Foxtail, Giant: 90
[15]; [23]
  Plant response rating, Ryegrass, Italian: 90
[15]; [24]
  Plant response rating, Ryegrass, Italian: 90
[16]; [23]
  Plant response rating, Ragweed: 20
[16]; [24]
  Plant response rating, Ragweed: 70
[17]; [23]
  Plant response rating, Barnyardgrass: 90
[17]; [24]
  Plant response rating, Barnyardgrass: 90
[18]; [23]
  Plant response rating, Pigweed: 40
[18]; [24]
  Plant response rating, Pigweed: 80
Kochia (Kochia scoparia) [19]; [23]
  Plant response rating, Kochia: 50
Kochia (Kochia scoparia) [19]; [24]
  Plant response rating, Kochia: 70

## Cc1cccc(C2CN(C)C(=O)C2C(=O)Nc2cccc(F)c2F)c1 (stereo not drawn) [Compound 667]
Rice (Oryra sativa)
  Plant response rating, Rice: 10
[1]
  Plant response rating, Sedge, Umbrella: 0
[2]
  Plant response rating, Barnyardgrass: 75
[3]
  Plant response rating, Ducksalad: 90
[4]
  Plant response rating (scale of 0 to 100), Blackgrass: 50
[4]; 62 g ai/ha
  Plant response rating, Blackgrass: 80
[4]; 125 g ai/ha
  Plant response rating, Blackgrass: 85
[4]; 250 g ai/ha
  Plant response rating, Blackgrass: 95
[5]; [20]
  Plant response rating, Foxtail, Giant: 90
[5]; [21]
  Plant response rating, Foxtail, Giant: 90
[6]; [20]
  Plant response rating, Ryegrass, Italian: 60
[6]; [21]
  Plant response rating, Ryegrass, Italian: 80
Corn (Zea mays); [20]
  Plant response rating, Corn: 70
Corn (Zea mays); [21]
  Plant response rating, Corn: 80
[7]; [20]
  Plant response rating, Ragweed: 0
[7]; [21]
  Plant response rating, Ragweed: 50
[8]; [20]
  Plant response rating, Galium: 50
[8]; [21]
  Plant response rating, Galium: 50
[9]; [20]
  Plant response rating, Barnyardgrass: 90
[9]; [21]
  Plant response rating, Barnyardgrass: 90
[10]; [20]
  Plant response rating, Blackgrass: 60
[10]; [21]
  Plant response rating, Blackgrass: 70
[11]; [20]
  Plant response rating, Pigweed: 0
[11]; [21]
  Plant response rating, Pigweed: 0
[12]; [20]
  Plant response rating, Wheat: 40
[12]; [21]
  Plant response rating, Wheat: 70
Kochia (Kochia scoparia) [13]; [20]
  Plant response rating, Kochia: 50
Kochia (Kochia scoparia) [13]; [21]
  Plant response rating, Kochia: 60
[14]; [23]
  Plant response rating, Foxtail, Giant: 90
[14]; [24]
  Plant response rating, Foxtail, Giant: 100
[15]; [23]
  Plant response rating, Ryegrass, Italian: 80
[15]; [24]
  Plant response rating, Ryegrass, Italian: 90
[16]; [23]
  Plant response rating, Ragweed: 60
[16]; [24]
  Plant response rating, Ragweed: 70
[17]; [23]
  Plant response rating, Barnyardgrass: 90
[17]; [24]
  Plant response rating, Barnyardgrass: 90
[18]; [23]
  Plant response rating, Pigweed: 20
[18]; [24]
  Plant response rating, Pigweed: 50
Kochia (Kochia scoparia) [19]; [23]
  Plant response rating, Kochia: 40
Kochia (Kochia scoparia) [19]; [24]
  Plant response rating, Kochia: 70

## O=C1NCC(c2cc(F)cc(Cl)c2)C1C(=O)Nc1cccc(F)c1F (stereo not drawn) [Compound 492]
Rice (Oryra sativa)
  Plant response rating, Rice: 25
[1]
  Plant response rating, Sedge, Umbrella: 0
[2]
  Plant response rating, Barnyardgrass: 65
[3]
  Plant response rating, Ducksalad: 100
[4]
  Plant response rating (scale of 0 to 100), Blackgrass: 0
[4]; 62 g ai/ha
  Plant response rating, Blackgrass: 5
[4]; 125 g ai/ha
  Plant response rating, Blackgrass: 10
[4]; 250 g ai/ha
  Plant response rating, Blackgrass: 10
[5]; [25]
  Foxtail, Giant plant response rating: 90
[5]; [22]
  Plant response rating, Foxtail, Giant: 90
[6]; [25]
  Ryegrass, Italian plant response rating: 20
[6]; [22]
  Plant response rating, Ryegrass, Italian: 50
Corn (Zea mays); [25]
  Corn plant response rating: 70
Corn (Zea mays); [22]
  Plant response rating, Corn: 80
[7]; [25]
  Ragweed plant response rating: 30
[7]; [22]
  Plant response rating, Ragweed: 70
[8]; [25]
  Galium plant response rating: 50
[8]; [22]
  Plant response rating, Galium: 60
[9]; [25]
  Barnyardgrass plant response rating: 90
[9]; [22]
  Plant response rating, Barnyardgrass: 90
[10]; [25]
  Blackgrass plant response rating: 50
[10]; [22]
  Plant response rating, Blackgrass: 70
[11]; [25]
  Pigweed plant response rating: 40
[11]; [22]
  Plant response rating, Pigweed: 60
[12]; [25]
  Wheat plant response rating: 20
[12]; [22]
  Plant response rating, Wheat: 60
Kochia (Kochia scoparia) [13]; [25]
  Kochia plant response rating: 40
Kochia (Kochia scoparia) [13]; [22]
  Plant response rating, Kochia: 60
[14]; [23]
  Plant response rating, Foxtail, Giant: 90
[14]; [26]
  Foxtail, Giant plant response rating (0 to 100 scale, 0 is no effect, 100 is complete control): 90
[15]; [23]
  Plant response rating, Ryegrass, Italian: 50
[15]; [26]
  Ryegrass, Italian plant response rating (0 to 100 scale, 0 is no effect, 100 is complete control): 50
[16]; [23]
  Plant response rating, Ragweed: 30
[16]; [26]
  Ragweed plant response rating (0 to 100 scale, 0 is no effect, 100 is complete control): 80
[17]; [23]
  Plant response rating, Barnyardgrass: 90
[17]; [26]
  Barnyardgrass plant response rating (0 to 100 scale, 0 is no effect, 100 is complete control): 90
[18]; [23]
  Plant response rating, Pigweed: 0
[18]; [26]
  Pigweed plant response rating (0 to 100 scale, 0 is no effect, 100 is complete control): 70
Kochia (Kochia scoparia) [19]; [23]
  Plant response rating, Kochia: 60
Kochia (Kochia scoparia) [19]; [26]
  Kochia plant response rating (0 to 100 scale, 0 is no effect, 100 is complete control): 70
